Test results reported in paper PMC7070283, “Effect of Copper on the Mitochondrial Carnitine/Acylcarnitine Carrier Via Interaction with Cys136 and Cys155. Possible Implications in Pathophysiology” (Molecules, 2020).

Target: T1, native carnitine/acylcarnitine carrier (CAC) (Rattus norvegicus, UniProt P97521)
T1 construct: the native protein extracted from rat liver mitochondria; from tissue; host or cells: rat liver mitochondria
T1 sequence (P97521 1-301): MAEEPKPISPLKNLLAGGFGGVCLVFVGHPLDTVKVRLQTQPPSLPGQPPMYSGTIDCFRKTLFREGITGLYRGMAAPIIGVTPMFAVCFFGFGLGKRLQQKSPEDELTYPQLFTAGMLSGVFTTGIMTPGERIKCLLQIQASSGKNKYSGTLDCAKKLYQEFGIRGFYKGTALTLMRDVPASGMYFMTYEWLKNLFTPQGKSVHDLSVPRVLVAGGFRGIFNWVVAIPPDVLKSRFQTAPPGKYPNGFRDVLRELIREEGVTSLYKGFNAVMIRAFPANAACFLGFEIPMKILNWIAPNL
Assay: [3H]carnitine/carnitine antiport in proteoliposomes reconstituted with native CAC extracted from rat liver mitochondria
Assay type: biochemical
Settings: intact rat liver mitochondria incubated 1 h with CuCl2 (50 µM) or GSH (5 mM), then CAC extracted and reconstituted
Description: Figure 2 Dose-response analysis of copper effect on the native CAC. Proteoliposomes reconstituted with the CAC extracted from rat liver mitochondria were incubated with (○) CuCl2 or (●) CuCl at the indicated concentrations for 1 min, and then the transport activity was measured by adding 0.1 mM [^3H]carnitine and stopped after 10 min as described in Materials and Methods. Percent of residual activity with respect to the control, without copper treatment, is reported. The values are the means ± SD from three independent experiments.
The recombinant CAC (WT and mutant) proteins were used for proteoliposome formation as previously described. For the experiments with the native protein, rat liver mitochondria were first purified using the standard procedure of cell disruption and differential centrifugation. […]
Transport was started by adding 0.1 mM [^3H]carnitine to proteoliposome samples and, at the indicated time interval stopped by 1.5 mM NEM. […] After terminating the transport reaction, the external substrate was removed by chromatography on Sephadex G-75 columns, and the intraliposomal radioactivity was measured. Transport was measured at 25 °C. […] Transport rates were measured in 5 min, i.e., within the initial linear range of the time course.

Question: With N[C@@H](CCC(=O)N[C@@H](CS)C(=O)NCC(=O)O)C(=O)O [GSH, reduced glutathione] as the molecule, how does the “effect on transport with respect to protein from untreated mitochondria” value read?
Answer: The value was “did not exert any appreciable effect”.
